The values that follow come from patent US20260116910A1, “POLYCYCLIC COMPOUNDS AND METHODS THEREOF” (HEPAITECH (BEIJING) BIOPHARMA TECHNOLOGY CO., LTD., priority 2021, published 2026).

Assay [1] deals with T1, human FXR (NR1H4) (Homo sapiens, UniProt Q96RI1).
T1 sequence (Q96RI1 1-476 isoform Q96RI1-1): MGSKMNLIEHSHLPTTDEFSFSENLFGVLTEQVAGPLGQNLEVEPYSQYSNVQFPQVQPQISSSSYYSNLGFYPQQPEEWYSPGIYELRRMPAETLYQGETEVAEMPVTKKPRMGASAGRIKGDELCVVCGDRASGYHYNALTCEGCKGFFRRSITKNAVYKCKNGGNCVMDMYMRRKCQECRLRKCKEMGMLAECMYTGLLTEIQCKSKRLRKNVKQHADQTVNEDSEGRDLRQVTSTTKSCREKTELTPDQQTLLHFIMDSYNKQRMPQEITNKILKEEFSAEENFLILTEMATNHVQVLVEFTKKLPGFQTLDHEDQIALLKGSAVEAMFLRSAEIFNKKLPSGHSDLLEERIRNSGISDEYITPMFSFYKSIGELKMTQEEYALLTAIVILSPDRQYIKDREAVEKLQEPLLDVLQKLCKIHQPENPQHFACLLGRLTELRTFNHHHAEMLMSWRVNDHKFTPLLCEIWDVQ
As to the kind of experiment: Human FXR (NR1H4) agonist assessment, FXRE-NanoLuc reporter in HEK293T cells. Format: cell-based. The note with it: for EC50: read-out: EC50. A digest of the protocol:
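HEK293T cells stably expressing human FXR with an FXRE-NanoLuc reporter were treated with compounds for 24 hr at 37 °C, with 0.01% DMSO as negative control. Medium was read for luminescence after 5 min with coelenterazine. EC50 was fitted by sigmoid to concentration-response data.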

Assay [2] has as its target MRGPRX4 (Homo sapiens, UniProt Q96LA9). As to the kind of experiment: MRGPRX4 activation, Fluo-8 Ca2+ FLIPR assay in HEK293T cells stably expressing MRGPRX4. In kind it is cell-based. Set-up: key to MRGPRX4 activation, Average / MRGPRX4 activation, Ave.: fluorescence change dF/F0. The note with it: for EC50: MRGPRX4 activation, Ca2+ fluorescence, no activation in tested range reported as III, read-out: Activity (EC50 μM). A digest of the protocol:
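Cells seeded overnight to >95% confluence, loaded 40-60 min at room temperature with 2 μM Fluo-8 AM, then kept in HHBS. Baseline read 30 s, compound added, signal followed 150 s more.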

Setting [3] is: FXR activation, HEK293T FXRE-NanoLuc reporter, 24 hr.

“And” between values parts separate entries of the source, which are not always exact repeats. Equal entries are not always repeated. Where two headings read alike, the source gives them in different places. Some results are limits rather than exact numbers.

MRGPRX4, sequence (Q96LA9 whole entry): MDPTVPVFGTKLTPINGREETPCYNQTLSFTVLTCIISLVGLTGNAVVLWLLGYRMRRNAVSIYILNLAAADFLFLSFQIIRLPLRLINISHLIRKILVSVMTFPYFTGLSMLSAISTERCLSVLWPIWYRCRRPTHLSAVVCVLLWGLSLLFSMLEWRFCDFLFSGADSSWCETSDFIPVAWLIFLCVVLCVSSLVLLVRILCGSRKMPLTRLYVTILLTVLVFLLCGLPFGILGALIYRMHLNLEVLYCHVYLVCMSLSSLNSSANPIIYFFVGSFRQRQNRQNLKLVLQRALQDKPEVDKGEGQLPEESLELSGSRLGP

For orientation: EC50 means the concentration at which the effect is half-maximal. `CC[C@H]1[C@@H](O)[C@@H]2[C@H](CC[C@]3(C)[C@@H]([C@H](C)CCNC(=O)NS(=O)(=O)c4cc(F)cc(F)c4)CC[C@@H]23)[C@@]2(C)CC[C@H](F)C[C@@H]12` [9-3]: the “Efficacy (maximum measured induction of NanoLuc, normalized to CDCA set as 100%)” value in assay [1] (setting [3]) is reported as “B (300%<efficacy <=400%)”. For the same compound, the concentration for a half-maximal effect (EC50) in assay [1] (setting [3]) was less than 1000 nM; in assay [2] it was greater than 100 µM. In addition, the “MRGPRX4 activation, Average” value was 0.006 in assay [2] (E3-9, Conc. (Log[M]) −4.0); 0.004 in assay [2] (E3-9, Conc. (Log[M]) −4.5); 0.018 in assay [2] (E3-9, Conc. (Log[M]) −5.0); 0.019 in assay [2] (E3-9, Conc. (Log[M]) −5.4); 0.019 in assay [2] (E3-9, Conc. (Log[M]) −5.9); 0.016 in assay [2] (E3-9, Conc. (Log[M]) −6.4). The “MRGPRX4 activation, Average” value was 0.014 in assay [2] (E3-9, Conc. (Log[M]) −6.9); 0.018 in assay [2] (E3-9, Conc. (Log[M]) −7.3); 0.016 in assay [2] (E3-9, Conc. (Log[M]) −7.8); 0.016 in assay [2] (E3-9, Conc. (Log[M]) −8.3).

`CC[C@H]1[C@@H](O)[C@@H]2[C@H](CC[C@]3(C)[C@@H]([C@H](C)CCNC(=O)NS(=O)(=O)c4cccs4)CC[C@@H]23)[C@@]2(C)CC[C@H](F)C[C@@H]12` [9-4]: the “Efficacy (maximum measured induction of NanoLuc, normalized to CDCA set as 100%)” value in assay [1] (setting [3]) is recorded as “C (100%<efficacy <=300%)”. For the same compound, the figures for the 50% effective concentration (EC50) in assay [1] (setting [3]) and in assay [2] were less than 1000 nM and greater than 100 µM, respectively. Also, the “MRGPRX4 activation, Average” value in assay [2] (E3-9, Conc. (Log[M]) −4.0) is −0.003; in assay [2] (E3-9, Conc. (Log[M]) −4.5), 0.004; in assay [2] (E3-9, Conc. (Log[M]) −5.0) it was 0.014; in assay [2] (E3-9, Conc. (Log[M]) −5.4), 0.019; in assay [2] (E3-9, Conc. (Log[M]) −5.9) it was 0.019; in assay [2] (E3-9, Conc. (Log[M]) −6.4), 0.018. Also, the “MRGPRX4 activation, Average” value in assay [2] (E3-9, Conc. (Log[M]) −6.9) was 0.019; in assay [2] (E3-9, Conc. (Log[M]) −7.3) it was 0.021; in assay [2] (E3-9, Conc. (Log[M]) −7.8), 0.018; in assay [2] (E3-9, Conc. (Log[M]) −8.3), 0.019.

`CC[C@H]1[C@@H](O)[C@H]2[C@@H]3CC[C@](C)([C@H](C)CCNC(=O)NS(=O)(=O)C[C@]45CCC(CC4=O)C5(C)C)[C@H]3CC[C@@H]2[C@@]2(C)CC[C@H](F)C[C@@H]12` [9-5]: the “Efficacy (maximum measured induction of NanoLuc, normalized to CDCA set as 100%)” value in assay [1] is on record as “C (key: A: efficacy >400%; B: 300%<efficacy <=400%; C: 100%<efficacy <=300%; D: efficacy <=100%)”. The results for the EC50 in assay [1] (setting [3]) and in assay [2] were less than 1000 nM and greater than 100 µM, respectively. For the same compound, the “MRGPRX4 activation, Average” value in assay [2] (E3-9, Conc. (Log[M]) −4.0) worked out at 0.014; in assay [2] (E3-9, Conc. (Log[M]) −4.5), 0.016; in assay [2] (E3-9, Conc. (Log[M]) −5.0), 0.023; in assay [2] (E3-9, Conc. (Log[M]) −5.4), 0.023; in assay [2] (E3-9, Conc. (Log[M]) −5.9) it was 0.018; in assay [2] (E3-9, Conc. (Log[M]) −6.4), 0.019. The “MRGPRX4 activation, Average” value was 0.021 in assay [2] (E3-9, Conc. (Log[M]) −6.9); 0.019 in assay [2] (E3-9, Conc. (Log[M]) −7.3); 0.021 in assay [2] (E3-9, Conc. (Log[M]) −7.8); 0.021 in assay [2] (E3-9, Conc. (Log[M]) −8.3).

Regarding `CC[C@H]1[C@@H](O)[C@@H]2[C@H](CC[C@]3(C)[C@@H]([C@H](C)CCNC(=O)NS(=O)(=O)c4ccc(Br)cc4OC(F)(F)F)CC[C@@H]23)[C@@]2(C)CC[C@H](F)C[C@@H]12` [9-6], in assay [1] (setting [3]), the “Efficacy (maximum measured induction of NanoLuc, normalized to CDCA set as 100%)” value was “C (100%<efficacy <=300%)”. Further, the EC50 was less than 1000 nM in assay [1] (setting [3]) and greater than 100 µM in assay [2]. Further, the “MRGPRX4 activation, Average” value in assay [2] (E3-9, Conc. (Log[M]) −4.0) worked out at 0.021; in assay [2] (E3-9, Conc. (Log[M]) −4.5) it was 0.014; in assay [2] (E3-9, Conc. (Log[M]) −5.0), 0.016; in assay [2] (E3-9, Conc. (Log[M]) −5.4), 0.010; in assay [2] (E3-9, Conc. (Log[M]) −5.9), 0.019; in assay [2] (E3-9, Conc. (Log[M]) −6.4), 0.018. Also, the “MRGPRX4 activation, Average” value in assay [2] (E3-9, Conc. (Log[M]) −6.9) was determined as 0.016; in assay [2] (E3-9, Conc. (Log[M]) −7.3) it was 0.014; in assay [2] (E3-9, Conc. (Log[M]) −7.8), 0.012; in assay [2] (E3-9, Conc. (Log[M]) −8.3), 0.016.

For the compound `CC[C@H]1[C@@H](O)[C@@H]2[C@H](CC[C@]3(C)[C@@H]([C@H](C)CCC(=O)NS(C)(=O)=O)CC[C@@H]23)[C@@]2(C)CC[C@H](F)C[C@@H]12` [9-7], the “Efficacy (maximum measured induction of NanoLuc, normalized to CDCA set as 100%)” value in assay [1] (setting [3]) is on record as “A (efficacy >400%)”. Besides, the half-maximal effective concentration (EC50) in assay [1] (setting [3]) is 1000 to 10000 nM; in assay [2], greater than 100 µM. In addition, in assay [2] (Conc. (Log[M]) −4.5), the “MRGPRX4 activation, fluorescence change (dF/F0), Average” value was 0.022 and 0.037.
